Measured values from patent US8946282B2, “Indolin-2-one derivatives as protein kinase inhibitors” (Annji Pharmaceutical Co., Ltd., priority 2012, dated 2015).

What was measured:
aurora B = aurora B (Homo sapiens, UniProt Q96GD4); test: radioisotope-based P81 filter-binding assay, aurora B kinase; assay type: biochemical; conditions: for IC50: averaged from two independent dose-response curves, read-out: Enzyme assay IC50 Aur B; for inhibition at 1 µM: compound at 1.0 μM, mean values (n=2), read-out: percent inhibition of enzyme catalytic activity, Aur B (numbers in parentheses)
Method: (§1) Compounds of formula (I)-(IV) were evaluated for abilities in inhibiting protein kinases aurora B and FLT-3 activity using radioisotope-based P81 filter-binding assay (Table 1).

FLT-3 = biological target: T1, FLT-3 (Homo sapiens, UniProt P36888); test: radioisotope-based P81 filter-binding assay, FLT-3 kinase; assay type: biochemical; conditions: for IC50: averaged from two independent dose-response curves, read-out: Enzyme assay IC50 FLT-3; for inhibition at 1 µM: compound at 1.0 μM, mean values (n=2), read-out: percent inhibition of enzyme catalytic activity, FLT-3 (numbers in parentheses)
T1 sequence (P36888 27-993): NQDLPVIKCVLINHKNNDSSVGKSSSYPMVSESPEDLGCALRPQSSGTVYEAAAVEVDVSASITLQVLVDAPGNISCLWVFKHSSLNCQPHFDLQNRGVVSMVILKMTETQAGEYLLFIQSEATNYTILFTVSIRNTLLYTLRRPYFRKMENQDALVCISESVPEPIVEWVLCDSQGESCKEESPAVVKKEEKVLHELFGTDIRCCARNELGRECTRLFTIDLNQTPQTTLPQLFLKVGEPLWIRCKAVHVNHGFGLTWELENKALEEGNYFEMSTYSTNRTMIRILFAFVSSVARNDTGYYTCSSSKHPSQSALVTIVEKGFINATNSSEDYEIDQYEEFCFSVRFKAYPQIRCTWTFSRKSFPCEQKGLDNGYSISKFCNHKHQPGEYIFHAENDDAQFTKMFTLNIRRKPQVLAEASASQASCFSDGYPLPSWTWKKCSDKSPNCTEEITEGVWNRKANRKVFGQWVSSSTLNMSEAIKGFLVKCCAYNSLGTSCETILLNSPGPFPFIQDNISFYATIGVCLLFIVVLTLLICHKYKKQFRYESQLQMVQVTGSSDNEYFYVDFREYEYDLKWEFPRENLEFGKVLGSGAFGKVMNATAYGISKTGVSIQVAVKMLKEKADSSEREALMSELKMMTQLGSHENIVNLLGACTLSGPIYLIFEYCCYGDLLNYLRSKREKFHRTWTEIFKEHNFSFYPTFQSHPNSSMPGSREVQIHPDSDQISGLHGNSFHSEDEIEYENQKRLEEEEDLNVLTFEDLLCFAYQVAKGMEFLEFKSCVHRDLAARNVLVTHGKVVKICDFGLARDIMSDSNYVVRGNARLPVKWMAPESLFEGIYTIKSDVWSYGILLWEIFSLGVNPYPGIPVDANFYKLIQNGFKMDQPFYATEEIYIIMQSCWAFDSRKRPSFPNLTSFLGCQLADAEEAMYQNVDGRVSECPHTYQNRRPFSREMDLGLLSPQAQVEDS
Method: as §1

[1] = tested on: MV4-11 human acute myelomonocytic leukemia cells; test: anti-proliferation, SRB colorimetric assay, MV4-11; assay type: cell-based; conditions: concentration required for 50% growth inhibition
Method: HCT116 human colorectal carcinoma cells (Table 3), HepG2 human hepatocellular carcinoma cells (Table 4), and MV4-11 human acute myelomonocytic leukemia cells (Table 5). Cells were treated with the test compound and the concentration required for 50% growth inhibition (IC50) determined by sulfomodamine B (SRB) colorimetric assay.

Sequence of aurora B (Q96GD4 whole entry): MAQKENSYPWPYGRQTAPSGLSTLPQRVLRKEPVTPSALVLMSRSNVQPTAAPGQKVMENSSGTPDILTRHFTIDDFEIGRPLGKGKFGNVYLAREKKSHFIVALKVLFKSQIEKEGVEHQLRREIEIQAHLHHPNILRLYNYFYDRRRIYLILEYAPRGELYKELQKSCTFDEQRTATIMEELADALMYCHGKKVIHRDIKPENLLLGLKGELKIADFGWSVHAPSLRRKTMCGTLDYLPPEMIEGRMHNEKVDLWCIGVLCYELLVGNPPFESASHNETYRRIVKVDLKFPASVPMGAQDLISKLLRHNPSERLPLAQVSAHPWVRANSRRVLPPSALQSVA

Compound `Cc1[nH]c(/C=C2\C(=O)Nc3cc(NC(=O)c4cccn(-c5ccc(F)cc5)c4=O)ccc32)c(C)c1C(=O)O` [D120, (Z)-5-((6-(1-(4-fluorophenyl)-2-oxo-1,2-dihydropyridine-3-carboxamido)-2-oxoindolin-3-ylidene)methyl)-2,4-dimethyl-1H-pyrrole-3-carboxylic acid] has a melting point greater than 300 °C, an IC50 (aurora B) of 10.7 nM and an IC50 (FLT-3) of 8.1 nM. The IC50 [1] was 0.23 nM.

In the case of `COc1ccc(-n2cccc(C(=O)Nc3ccc4c(c3)NC(=O)/C4=C\c3ccc[nH]3)c2=O)cc1` [D106, (Z)—N-(3-((1H-pyrrol-2-yl)methylene)-2-oxoindolin-6-yl)-1-(4-methoxyphenyl)-2-oxo-1,2-dihydropyridine-3-carboxamide], the melting point is reported as greater than 300 °C, the IC50 (aurora B) is reported as 209 nM and the IC50 (FLT-3) is reported as greater than 1000 nM. The IC50 [1] was 12.6 nM.

In the case of `O=C1Nc2cc(NC(=O)c3cccn(-c4ccccc4F)c3=O)ccc2/C1=C/c1ccc[nH]1` [D115], the melting point is reported as greater than 300 °C, the IC50 (aurora B) is reported as 138 nM and the IC50 (FLT-3) is reported as 535 nM. It also gave an IC50 [1] of 6.69 nM.

In the case of `COc1ccc(-c2c[nH]cc(C(=O)Nc3ccc4c(c3)NC(=O)/C4=C\c3[nH]c(C)c(C(=O)N4CCOCC4)c3C)c2=O)cc1` [D155, (Z)—N-(3-((3,5-dimethyl-4-(morpholine-4-carbonyl)-1H-pyrrol-2-yl)methylene)-2-oxoindolin-6-yl)-5-(4-methoxyphenyl)-4-oxo-1,4-dihydropyridine-3-carboxamide], the melting point is reported as 205 °C (dec.), the IC50 (aurora B) is reported as 42.8 nM and the IC50 (FLT-3) is reported as 34.9 nM. For the same compound, the IC50 [1] was 1.96 nM.

Compound `Cc1[nH]c(/C=C2\C(=O)Nc3cc(NC(=O)c4cccn(-c5ccc(F)cc5)c4=O)ccc32)c(C)c1CCC(=O)O` [D122] has a melting point greater than 300 °C, an IC50 (aurora B) of 5.5 nM and an IC50 (FLT-3) of 3.5 nM. The IC50 [1] was 15.8 nM.

Compound `COc1ccc(-c2c[nH]cc(C(=O)Nc3ccc4c(c3)NC(=O)/C4=C\c3[nH]c(C)c(C(=O)O)c3C)c2=O)cc1` [D142, (Z)-5-((6-(5-(4-methoxyphenyl)-4-oxo-1,4-dihydropyridine-3-carboxamido)-2-oxoindolin-3-ylidene)methyl)-2,4-dimethyl-1H-pyrrole-3-carboxylic acid] has an IC50 (aurora B) of 4.5 nM, an IC50 (FLT-3) of 24.6 nM and an IC50 [1] of 6.69 nM.

Work on `O=C1Nc2c(NC(=O)c3cccn(-c4ccc(F)cc4)c3=O)cccc2/C1=C/c1ccc[nH]1` [D118, (Z)—N-(3-((1H-pyrol-2-yl)methylene)-2-oxoindolin-7-yl)-1-(4-fluorophenyl)-2-oxo-1,2-dihydropyridine-3-carboxamide] yielded a melting point greater than 300 °C, an IC50 (aurora B) greater than 1000 nM and an IC50 (FLT-3) greater than 1000 nM.

Compound `Cn1cc(C(=O)Nc2ccc3c(c2)NC(=O)/C3=C\c2ccc[nH]2)c(=O)c(-c2ccc(F)cc2)c1` [D138, (Z)—N-(3-((1H-pyrrol-2-yl)methylene)-2-oxoindolin-6-yl)-5-(4-fluorophenyl)-1-methyl-4-oxo-1,4-dihydropyridine-3-carboxamide] has an IC50 (aurora B) of 94.6 nM, an IC50 (FLT-3) greater than 1000 nM and an IC50 [1] of 17.8 nM.

For `COc1cc(F)c(C(=O)NC(=O)Nc2cc3c(cc2F)/C(=C/c2[nH]c(C)c(C(=O)O)c2C)C(=O)N3)c(F)c1` [D61], the melting point was greater than 300 °C, the IC50 (aurora B) was 2.1 nM and the IC50 (FLT-3) was 380 nM.

In the case of `COc1ccc(N2CCN(C(=O)Nc3ccc4c(c3)NC(=O)/C4=C\c3ccc[nH]3)C2=O)cc1` [D91, (Z)—N-(3-((1H-pyrrol-2-yl)methylene)-2-oxoindolin-6-yl)-3-(4-methoxyphenyl)-2-oxoimidazolidine-1-carboxamide], the melting point is reported as 294 to 299 °C (dec.), the inhibition at 1 µM (aurora B) is reported as 25.3% and the inhibition at 1 µM (FLT-3) is reported as 26%.

`O=C1Nc2cc(NC(=O)N3CCN(c4ccc(Cl)c(C(F)(F)F)c4)C3=O)ccc2/C1=C/c1ccc[nH]1` [D87, (Z)—N-(3-((1H-pyrrol-2-yl)methylene)-2-oxoindolin-6-yl)-3-(4-chloro-3-(trifluoromethyl)phenyl)-2-oxoimidazolidine-1-carboxamide] showed a melting point greater than 300 °C, an IC50 (aurora B) of 1040 nM and an IC50 (FLT-3) of 569 nM.

In the case of `Cc1cccc(C(=O)NC(=O)Nc2ccc3c(c2)NC(=O)/C3=C\c2[nH]c(C)c(CCC(=O)O)c2C)c1` [D40, (Z)-3-(2,4-dimethyl-5-((6-(3-(3-methylbenzoyl)ureido)-2-oxoindolin-3-ylidene)-methyl)-1H-pyrrol-3-yl)propanoic acid], the melting point is reported as 240 to 245 °C (dec.), the IC50 (aurora B) is reported as 1.9 nM and the IC50 (FLT-3) is reported as 6.1 nM.

`O=C1Nc2cc(NC(=O)c3cccn(-c4ccc(Cl)c(C(F)(F)F)c4)c3=O)ccc2/C1=C/c1ccc[nH]1` [D109, (Z)—N-(3-((1H-pyrrol-2-yl)methylene)-2-oxoindolin-6-yl)-1-(4-chloro-(3-trifluoromethyl)phenyl)-2-oxo-1,2-dihydropyridine-3-carboxamide] showed an IC50 (aurora B) greater than 1000 nM, an IC50 (FLT-3) of 77.4 nM and an IC50 [1] of 7.19 nM.

With `CN(C)c1ccc(N2CCN(C(=O)Nc3ccc4c(c3)NC(=O)/C4=C\c3ccc[nH]3)C2=O)cc1` [D93, (Z)—N-(3-((1H-pyrrol-2-yl)methylene)-2-oxoindolin-6-yl)-3-(4-(dimethylamino)-phenyl)-2-oxoimidazolidine-1-carboxamide] the melting point was 279 to 284 °C (dec.), the IC50 (aurora B) was 24.2 nM and the IC50 (FLT-3) was 1220 nM.

For `COc1ccc(C(=O)NC(=O)Nc2cc3c(cc2F)/C(=C/c2ccc[nH]2)C(=O)N3)cc1` [D48, (Z)—N-(3-((1H-pyrrol-2-yl)methylene)-5-fluoro-2-oxoindolin-6-ylcarbamoyl)-4-methoxybenzamide], the melting point was greater than 300 °C, the IC50 (aurora B) was 35.1 nM and the IC50 (FLT-3) was greater than 10000 nM.

With `Cc1cc(C(=O)O)[nH]c1/C=C1\C(=O)Nc2cc(NC(=O)c3c[nH]cc(-c4ccc(F)cc4)c3=O)ccc21` [D146, (Z)-5-((6-(5-(4-fluorophenyl)-4-oxo-1,4-dihydropyridine-3-carboxamido)-2-oxoindolin-3-ylidene)methyl)-4-methyl-1H-pyrrole-2-carboxylic acid] the melting point was 243 °C, the IC50 (aurora B) was greater than 1000 nM and the IC50 (FLT-3) was greater than 1000 nM.

For `Cc1[nH]c(/C=C2\C(=O)Nc3cc(NC(=O)NC(=O)c4ccc(Cl)c(Cl)c4)ccc32)c(C)c1C(=O)O` [D34, (Z)-5-((6-(3-(3,4-dichlorobenzoyl)ureido)-2-oxoindolin-3-ylidene)methyl)-2,4-dimethyl-1H-pyrrole-3-carboxylic acid], the melting point was 295 to 300 °C (dec.), the IC50 (aurora B) was 2.1 nM and the IC50 (FLT-3) was 54.2 nM.

In the case of `COc1cc(OC)cc(C(=O)NC(=O)Nc2ccc3c(c2)NC(=O)/C3=C\c2[nH]c(C)c(C(=O)O)c2C)c1` [D42, (Z)-5-((6-(3-(3,5-dimethoxybenzoyl)ureido)-2-oxoindolin-3-ylidene)methyl)-2,4-dimethyl-1H-pyrrole-3-carboxylic acid], the melting point is reported as greater than 300 °C, the IC50 (aurora B) is reported as 2.1 nM and the IC50 (FLT-3) is reported as 115 nM.

For `COc1ccc(C(=O)NC(=O)Nc2ccc3c(c2)NC(=O)/C3=C\c2ccc(C(=O)O)[nH]2)cc1` [D45, (Z)-5-((6-(3-(4-methoxybenzoyl)ureido)-2-oxoindolin-3-ylidene)-methyl)-1H-pyrrole-2-carboxylic acid], the melting point was 286 to 291 °C (dec.), the inhibition at 1 µM (aurora B) was 20.9% and the inhibition at 1 µM (FLT-3) was 10%.

`O=C1Nc2cc(NC(=O)N3CCN(c4ccc(F)cc4)C3=O)ccc2/C1=C/c1ccc[nH]1` [D89, (Z)—N-(3-((1H-pyrrol-2-yl)methylene)-2-oxoindolin-6-yl)-3-(4-fluorophenyl)-2-oxoimidazolidine-1-carboxamide] gave a melting point greater than 300 °C, an IC50 (aurora B) of 37.9 nM and an IC50 (FLT-3) of 74.1 nM.

In the case of `Cc1[nH]c(/C=C2\C(=O)Nc3cc(NC(=O)N4CCN(C5CC5)C4=O)ccc32)c(C)c1C(=O)O` [D96, (Z)-5-((6-(3-cyclopropyl-2-oxoimidazolidine-1-carboxamido)-2-oxoindolin-3-ylidene)methyl)-2,4-dimethyl-1H-pyrrole-3-carboxylic acid], the melting point is reported as greater than 300 °C, the IC50 (aurora B) is reported as 3.5 nM and the IC50 (FLT-3) is reported as 217 nM.
